Results taken from PubChem BioAssay AID1996.
Values after ≈ are worked out from the molar mass of the structure shown.

Conditions: buffer; pH 7.4; 200.0 µM
CC(=O)OCCCN(C)CC/C=C1/c2ccccc2CSc2ccccc21.Cl showed a solubility kinetic of 53.8 µg/mL.
With CC1CN(C(=O)CCNC(=O)c2ccc(Cl)cc2)CC(C)O1 (centres undefined) the solubility kinetic was 42.1 µg/mL (≈ 130 µM).
Cc1ccccc1CC(=O)Nc1cccnc1 showed a solubility kinetic of over 33.9 µg/mL.
CN(C)c1ccc2c3c(ccc(N(C)C)c13)C(=O)OC2 showed a solubility kinetic of 36.6 µg/mL (≈ 135 µM).
Work on COc1ccc(OCC(=O)C2CC2)c(C#N)c1 yielded a solubility kinetic of 27.5 µg/mL (≈ 119 µM).
Compound COC(=O)c1c(C)nsc1NC(=O)Oc1ccccc1 has a solubility kinetic of 2.7 µg/mL (≈ 9.24 µM).
With O=C(Nc1ccccc1)Nc1ccccc1C(=O)NCCCN1CCOCC1 the solubility kinetic was 46.3 µg/mL (≈ 121 µM).
CC(C)N(Cc1cc2ccccc2[nH]c1=O)C(=O)c1cccc([N+](=O)[O-])c1 showed a solubility kinetic of 3.4 µg/mL (≈ 9.31 µM).
CC1(C)OC(C)(C)/C(=C\c2ccc(OCC(N)=O)cc2)C1=O gave a solubility kinetic of 28 µg/mL (≈ 92.3 µM).
CCN1CCN(c2ncnc3sc4c(c23)CCC(C)C4)CC1 (centres undefined) gave a solubility kinetic of 26.4 µg/mL (≈ 83.4 µM).
For Cc1ccccc1C(=O)Nc1ccc(N2CCN(C)CC2)nc1, the solubility kinetic was over 46.6 µg/mL.
With CCn1c(=O)c([N+](=O)[O-])c(Cl)c2ccccc21 the solubility kinetic was 3.3 µg/mL (≈ 13.1 µM).
Work on O=C(NCC(c1ccco1)N1CCCC1)c1ccc(-n2cccn2)cc1 (centres undefined) yielded a solubility kinetic of over 52.6 µg/mL.
Compound Clc1nccc(N2CCN(c3ccccc3Cl)CC2)n1 has a solubility kinetic of 13.3 µg/mL (≈ 43 µM).
In the case of S=C(Nc1ccc2c(c1)OCO2)Nc1ccccc1Cl, the solubility kinetic is reported as 32.5 µg/mL (≈ 106 µM).
For O=C(CN1CCN(Cc2ccccc2)CC1)N/N=C/c1cccnc1, the solubility kinetic was over 50.6 µg/mL.
Compound O=C1CC(Sc2ccc(Cl)cc2)C(=O)N1c1ccc2c(c1)OCCO2 (centres undefined) has a solubility kinetic of 13 µg/mL (≈ 34.6 µM).
COc1ccc(NC(=O)COC(=O)CCc2ccc(S(=O)(=O)N3CCOCC3)cc2)c(OC)c1 showed a solubility kinetic of 11 µg/mL (≈ 22.3 µM).
O=C(Nc1cc2c3c(c1)CC(=O)N3CCC2)c1c(F)cccc1F showed a solubility kinetic of 9.6 µg/mL (≈ 29.2 µM).
Work on Cl.c1ccc(OCC2CCNCC2)nc1 yielded a solubility kinetic of 33.7 µg/mL.
With O=C(Nc1ccccc1)OCCCCCOC(=O)Nc1ccccc1 the solubility kinetic was under 0.4 µg/mL.
In the case of NS(=O)(=O)c1ccc(NC(=O)CCC(=O)N2CCOCC2)cc1, the solubility kinetic is reported as over 51.2 µg/mL.
For CC(Oc1ccccc1)C(=O)Nc1nc(-c2ccncc2)cs1 (centres undefined), the solubility kinetic was 2.6 µg/mL (≈ 7.99 µM).
With Cc1ccc(-c2nc(Cl)nc3ccccc23)cc1 the solubility kinetic was 1.7 µg/mL (≈ 6.67 µM).
For CCc1ccccc1NC(=S)N(CCN(C)C)C(C)c1cccnc1 (centres undefined), the solubility kinetic was 50.9 µg/mL (≈ 143 µM).
With COc1ccc(NS(=O)(=O)c2cn(C)c(=O)n(C)c2=O)cc1 the solubility kinetic was over 48.8 µg/mL.
With CCOC(=O)c1ccc(NC(=O)N2CCOCC2)cc1 the solubility kinetic was over 41.7 µg/mL.
With Cc1cc(C)cc(C(=O)Nc2cc3c4c(c2)CC(=O)N4CCC3)c1 the solubility kinetic was 1.2 µg/mL (≈ 3.75 µM).
Work on COc1ccccc1NC(=O)c1ccc(NC(=O)C2CC2C)cc1 (centres undefined) yielded a solubility kinetic of 10.3 µg/mL (≈ 31.8 µM).
CCCCNC(=O)[C@@H]1CSC2c3ccccc3C(=O)N21 (some centres undefined) gave a solubility kinetic of over 43.6 µg/mL.
CCN(CC(=O)NCc1cccs1)C(=O)c1ccc(Cl)c(Cl)c1 gave a solubility kinetic of over 55.7 µg/mL.
In the case of CC1CN(C(=O)CCNC(=O)c2ccccc2Cl)CC(C)O1 (centres undefined), the solubility kinetic is reported as over 48.7 µg/mL.
O=C1NCCCCC1NS(=O)(=O)c1cccc(C(F)(F)F)c1 (centres undefined) gave a solubility kinetic of over 50.4 µg/mL.
Compound c1csc(-c2nc(N3CCOCC3)c3ccccc3n2)c1 has a solubility kinetic of 2 µg/mL (≈ 6.73 µM).
With Cc1ccc(C)c(NCC(O)c2ccccc2)c1 (centres undefined) the solubility kinetic was over 36.2 µg/mL.
For COCC(=O)N1CCCC(N(C)CCc2ccc(OC)c(OC)c2)C1 (centres undefined), the solubility kinetic was over 52.6 µg/mL.
Compound COc1ccc(S(=O)(=O)N2CCCC2c2cccs2)cc1 (centres undefined) has a solubility kinetic of 27.4 µg/mL (≈ 84.7 µM).
CC(C)(C)CC(=O)NCCc1csc(-c2ccccc2)n1 showed a solubility kinetic of over 45.4 µg/mL.
With NS(=O)(=O)c1ccc(CCNC(=O)Cc2ccc(Cl)cc2)cc1 the solubility kinetic was over 52.9 µg/mL.
Work on Cc1[nH]c2ccccc2c1C(O)CN1CCC2(CC1)OCCO2 (centres undefined) yielded a solubility kinetic of over 47.5 µg/mL.
Work on COc1ccc(C(=O)C2CCCN(C(=O)C3=CCCC3)C2)cc1OC (centres undefined) yielded a solubility kinetic of over 51.5 µg/mL.
O=C(COC(=O)c1ccc([N+](=O)[O-])o1)NC12CC3CC(CC(C3)C1)C2 gave a solubility kinetic of over 52.3 µg/mL.
Work on Cc1ccc(Cl)cc1NC(=O)N[C@@H](CC(C)C)C(=O)O yielded a solubility kinetic of 43.8 µg/mL (≈ 147 µM).
With Cc1nc2ccc(NS(=O)(=O)c3ccc(F)cc3)cc2s1 the solubility kinetic was 44.3 µg/mL (≈ 137 µM).
O=C(CCNC(=O)c1ccccc1)NCC1CCCCC1 showed a solubility kinetic of over 43.3 µg/mL.
Cc1ccc(/C=C/C(=O)OCC(=O)NCc2cccs2)o1 showed a solubility kinetic of 21.8 µg/mL (≈ 71.4 µM).
With CC1Cc2ccccc2N1C(=O)Cn1cnc2ccccc21 (centres undefined) the solubility kinetic was 42.3 µg/mL (≈ 145 µM).
Compound O=C(COc1ncnc2ccccc12)Nc1ccccc1[N+](=O)[O-] has a solubility kinetic of 14.6 µg/mL (≈ 45 µM).
In the case of O=C(c1ccncc1)N1CCN(c2ccc3ccccc3n2)CC1, the solubility kinetic is reported as over 47.8 µg/mL.
CC(C)Sc1sc(C(=O)O)c(-c2ccc(Cl)cc2)c1C#N showed a solubility kinetic of over 50.7 µg/mL.
CCOc1cccc(N2C(=O)/C(=C/c3ccco3)C(=O)NC2=S)c1 gave a solubility kinetic of 12.3 µg/mL (≈ 35.9 µM).
Work on COC(=O)c1ccc(NC(=S)NC(=O)C2CCC2)cc1 yielded a solubility kinetic of 4.9 µg/mL (≈ 16.8 µM).
Compound Cc1ccc(S(=O)(=O)N2CCN(Cc3cccnc3)CC2)cc1 has a solubility kinetic of over 49.7 µg/mL.
Cc1cc(C)c(S(=O)(=O)Nc2nccs2)c(C)c1 gave a solubility kinetic of 36.1 µg/mL (≈ 128 µM).
For COC(=O)/C(C#N)=C/c1c(Oc2cc(C)cc(C)c2)nc2ccccn2c1=O, the solubility kinetic was 1.7 µg/mL (≈ 4.53 µM).
CC1=C(C(=O)N(C)C)C(c2ccc(N3CCOCC3)cc2)NC(=O)N1 (centres undefined) gave a solubility kinetic of 49.8 µg/mL (≈ 145 µM).
Compound Cc1ccc(Oc2ncccc2C(=O)NCC(=O)O)cc1 has a solubility kinetic of 42.7 µg/mL (≈ 149 µM).
Work on Cc1ccccc1C(=O)NC1CCN(CC(=O)NC2CCCCC2)CC1 yielded a solubility kinetic of over 53.6 µg/mL.
Compound Nc1cc(S(=O)(=O)Nc2ccccc2Cl)ccc1N1CCCCC1 has a solubility kinetic of 13.2 µg/mL (≈ 36.1 µM).
